US9725449B2, “Tricyclic compounds as anticancer agents” (BRISTOL-MYERS SQUIBB COMPANY, priority 2015, dated 2017)

What follows are compounds tested against BRD4 (Homo sapiens, UniProt O60885) (assay: Time resolved fluorescence resonance energy transfer (TR-FRET) binding assay, bromodomain BRD4). Details: one of the FRET assays described; read-out: FRET BRD4 IC50.

| SMILES | IC50 |
| --- | --- |
| Cc1noc(C)c1-c1cnc2c3cnc(Cl)cc3n(C(c3ncccc3F)C3CCOCC3)c2c1 (stereo not shown) [Example 324, 11-Chloro-5-(dimethyl-1,2-oxazol-4-yl)-8-[(3-fluoropyridin-2-yl)(oxan-4-yl)methyl]-3,8,12-triazatricyclo[7.4.0.0^2,^7]trideca-1(9),2(7),3,5,10,12-hexaene] | < 1.5 µM |
| Cc1noc(C)c1-c1cnc2c3cnc(Cl)cc3n([C@H](c3ccc(F)cc3)C3CCOCC3)c2c1 [Example 326] | < 0.01 µM |
| C=C(OCC)c1cc2c(cn1)c1ncc(-c3c(C)noc3C)cc1n2[C@H](c1ccc(F)cc1)C1CCOCC1 [Example 329, 5-(Dimethyl-1,2-oxazol-4-yl)-11-(1-ethoxyethenyl)-8-[(S)-(4-fluorophenyl)(oxan-4-yl)methyl]-3,8,12-triazatricyclo[7.4.0.0^2,^7]trideca-1(9),2(7),3,5,10,12-hexaene] | < 0.01 µM |
| CC(=O)c1cc2c(cn1)c1ncc(-c3c(C)noc3C)cc1n2[C@H](c1ccc(F)cc1)C1CCOCC1 [Example 330, 1-[5-(Dimethyl-1,2-oxazol-4-yl)-8-[(S)-(4-fluorophenyl)(oxan-4-yl)methyl]-3,8,12-triazatricyclo[7.4.0.0^2,^7]trideca-1(9),2(7),3,5,10,12-hexaen-11-yl]ethan-1-one] | < 0.01 µM |
| Cc1noc(C)c1-c1cnc2c3cnc(C(C)(C)O)cc3n([C@H](c3ccc(F)cc3)C3CCOCC3)c2c1 [Example 331, 2-[5-(Dimethyl-1,2-oxazol-4-yl)-8-[(S)-(4-fluorophenyl)(oxan-4-yl)methyl]-3,8,12-triazatricyclo[7.4.0.0^2,^7]trideca-1(9),2(7),3,5,10,12-hexaen-11-yl]propan-2-ol] | < 0.01 µM |
| [2H]C([2H])([2H])c1nnn(C)c1-c1cnc2c3cnc(C(C)(C)O)cc3n([C@H](c3ccccc3F)C3CCOCC3)c2c1 [Example 332] | < 0.01 µM |
| [2H]C([2H])([2H])c1nnn(C)c1-c1cnc2c3cnc(C(C)=O)cc3n([C@H](c3ccccc3F)C3CCOCC3)c2c1 [Example 333] | < 0.01 µM |
| Cc1noc(C)c1-c1cnc2c3cnc(C(C)(C)O)cc3n([C@H](c3ccccc3)C3CCOCC3)c2c1 [Example 335] | < 0.01 µM |
| Cc1nnn(C)c1-c1cnc2c3cnc(C(C)(C)O)cc3n([C@H](c3ccc(F)cc3)C3CCOCC3)c2c1 [Example 336] | < 0.01 µM |
| CC(=O)c1cc2c(cn1)c1ncc(-c3c(C)nnn3C)cc1n2[C@H](c1ccc(F)cc1)C1CCOCC1 [Example 337] | < 0.01 µM |
| Cc1noc(C)c1-c1cnc2c3cnc(C(C)(C)O)cc3n([C@H](c3ncccc3F)C3CCOCC3)c2c1 [Example 338] | < 0.01 µM |
| Cc1nnn(C)c1-c1cnc2c3cnc(C(C)(C)O)cc3n([C@H](c3ncccc3F)C3CCOCC3)c2c1 [Example 339] | < 0.01 µM |
| CCc1nnn(C)c1-c1cnc2c3cnc(C(C)(C)O)cc3n([C@H](c3ccccc3)C3CCOCC3)c2c1 [Example 340, 2-[5-(4-Ethyl-1-methyl-1H-1,2,3-triazol-5-yl)-8-[(S)-oxan-4-yl(phenyl)methyl]-3,8,12-triazatricyclo[7.4.0.0^2,^7]trideca-1(9),2(7),3,5,10,12-hexaen-11-yl]propan-2-ol] | < 0.01 µM |
| [2H]C([2H])([2H])c1nnn(C)c1-c1cnc2c3c(NCC(F)(F)F)ncc(S(C)(=O)=O)c3n([C@H](c3ncccc3F)C3CCOCC3)c2c1 [Example 341, 8-[(S)-(3-Fluoropyridin-2-yl)(oxan-4-yl)methyl]-10-methanesulfonyl-5-[4-(^2H3)methyl-1-methyl-1H-1,2,3-triazol-5-yl]-N-(2,2,2-trifluoroethyl)-3,8,12-triazatricyclo[7.4.0.0^2,^7]trideca-1(13),2(7),3,5,9,11-hexaen-13-amine] | < 0.001 µM |
| [2H]C([2H])([2H])c1nnn(C)c1-c1cnc2c3c(OC)nc(S(C)(=O)=O)cc3n([C@H](c3ccccc3)C3CCOCC3)c2c1 [Example 342, 11-Methanesulfonyl-13-methoxy-5-[4-(^2H3)methyl-1-methyl-1H-1,2,3-triazol-5-yl]-8-[(S)-oxan-4-yl(phenyl)methyl]-3,8,12-triazatricyclo[7.4.0.0^2,^7]trideca-1(13),2(7),3,5,9,11-hexaene] | < 0.01 µM |
| [2H]C([2H])([2H])c1nnn(C)c1-c1cnc2c3c(OC)nc(N4CCC(F)(F)CC4)cc3n([C@H](c3ccccc3)C3CCOCC3)c2c1 [Example 343, 11-(4,4-Difluoropiperidin-1-yl)-13-methoxy-5-[4-(^2H3)methyl-1-methyl-1H-1,2,3-triazol-5-yl]-8-[(S)-oxan-4-yl(phenyl)methyl]-3,8,12-triazatricyclo[7.4.0.0^2,^7]trideca-1(13),2(7),3,5,9,11-hexaene] | < 0.001 µM |

| SMILES | IC50 |
| --- | --- |
| [2H]C([2H])([2H])c1nnn(C)c1-c1cnc2c3c(OC)nc(C(C)(C)O)cc3n(C(c3ccccc3)C3CCC(F)(F)CC3)c2c1 (stereo not shown) [Example 345, 2-{8-[(4,4-Difluorocyclohexyl)(phenyl)methyl]-13-methoxy-5-[4-(^2H3)methyl-1-methyl-1H-1,2,3-triazol-5-yl]-3,8,12-triazatricyclo[7.4.0.0^2,^7]trideca-1(13),2(7),3,5,9,11-hexaen-11-yl}propan-2-ol] | < 0.001 µM |
| [2H]C([2H])([2H])c1nnn(C)c1-c1cnc2c3c(OC)nc(C(C)(C)O)cc3n(C(c3ccccc3)C3CCC(F)(F)CC3)c2c1 (stereo not shown) [Example 346, 2-{8-[(4,4-Difluorocyclohexyl)(phenyl)methyl]-13-methoxy-5-[4-(^2H3)methyl-1-methyl-1H-1,2,3-triazol-5-yl]-3,8,12-triazatricyclo[7.4.0.0^2,^7]trideca-1(13),2(7),3,5,9,11-hexaen-11-yl}propan-2-ol] | < 0.001 µM |
| [2H]C([2H])([2H])c1nnn(C)c1-c1cnc2c3cc(Cl)cnc3n([C@H](c3ccccc3)C3CCOCC3)c2c1 [Example 347, 12-Chloro-5-[4-(^2H3)methyl-1-methyl-1H-1,2,3-triazol-5-yl]-8-[(S)-oxan-4-yl(phenyl)methyl]-3,8,10-triazatricyclo[7.4.0.0^2,^7]trideca-1(13),2(7),3,5,9,11-hexaene] | < 1.5 µM |
| [2H]C([2H])([2H])c1nnn(C)c1-c1cnc2c3cc(C(=O)OC)cnc3n([C@H](c3ccccc3)C3CCOCC3)c2c1 [Example 348, Methyl 5-[4-(^2H3)methyl-1-methyl-1H-1,2,3-triazol-5-yl]-8-[(S)-oxan-4-yl(phenyl)methyl]-3,8,10-triazatricyclo[7.4.0.0^2,^7]trideca-1(13),2(7),3,5,9,11-hexaene-12-carboxylate] | < 0.01 µM |
| [2H]C([2H])([2H])c1nnn(C)c1-c1cnc2c3cc(C(C)(C)O)cnc3n([C@H](c3ccccc3)C3CCOCC3)c2c1 [Example 349, 2-{5-[4-(^2H3)Methyl-1-methyl-1H-1,2,3-triazol-5-yl]-8-[(S)-oxan-4-yl(phenyl)methyl]-3,8,10-triazatricyclo[7.4.0.0^2,^7]trideca-1(13),2(7),3,5,9,11-hexaen-12-yl}propan-2-ol] | < 0.001 µM |
| Cc1nnn(C)c1-c1cnc2c3cc(C(C)(C)O)cnc3n([C@H](c3ccccc3)C3CCOCC3)c2c1 [Example 350, 2-[5-(Dimethyl-1H-1,2,3-triazol-5-yl)-8-[(S)-oxan-4-yl(phenyl)methyl]-3,8,10-triazatricyclo[7.4.0.0^2,^7]trideca-1(13),2(7),3,5,9,11-hexaen-12-yl]propan-2-ol] | < 0.01 µM |
| Cc1noc(C)c1-c1cnc2c3cc(C(C)(C)O)cnc3n([C@H](c3ccccc3)C3CCOCC3)c2c1 [Example 351, 2-[5-(Dimethyl-1,2-oxazol-4-yl)-8-[(S)-oxan-4-yl(phenyl)methyl]-3,8,10-triazatricyclo[7.4.0.0^2,^7]trideca-1(13),2(7),3,5,9,11-hexaen-12-yl]propan-2-ol] | < 1.5 µM |
| [2H]C([2H])([2H])c1nnn(C)c1-c1cnc2c3cc(C(C)(C)O)cnc3n([C@H](c3ncccc3F)C3CCOCC3)c2c1 [Example 352, 2-{8-[(S)-(3-Fluoropyridin-2-yl)(oxan-4-yl)methyl]-5-[4-(^2H3)methyl-1-methyl-1H-1,2,3-triazol-5-yl]-3,8,10-triazatricyclo[7.4.0.0^2,^7]trideca-1(13),2(7),3,5,9,11-hexaen-12-yl}propan-2-ol] | < 0.01 µM |
| [2H]C([2H])([2H])c1nnn(C)c1-c1cnc2c3cnc(C(C)(C)O)cc3n(C(CCC)c3ncccc3F)c2c1 (stereo not shown) [Example 359, 2-{8-[1-(3-Fluoropyridin-2-yl)butyl]-5-[4-(^2H3)methyl-1-methyl-1H-1,2,3-triazol-5-yl]-3,8,12-triazatricyclo[7.4.0.0^2,^7]trideca-1(13),2(7),3,5,9,11-hexaen-11-yl}propan-2-ol] | < 0.01 µM |
| [2H]C([2H])([2H])c1nnn(C)c1-c1cnc2c3cnc(C(C)(C)O)cc3n(C(CCC)c3ncccc3F)c2c1 (stereo not shown) [Example 360, 2-{8-[1-(3-Fluoropyridin-2-yl)butyl]-5-[4-(^2H3)methyl-1-methyl-1H-1,2,3-triazol-5-yl]-3,8,12-triazatricyclo[7.4.0.0^2,^7]trideca-1(13),2(7),3,5,9,11-hexaen-11-yl}propan-2-ol] | < 0.01 µM |
| [2H]C([2H])([2H])c1nnn(C)c1-c1nc2c(cc1F)c1ncc(C(C)(C)O)cc1n2[C@H](c1ccccc1)C1CCOCC1 [Example 361, 2-{12-Fluoro-11-[4-(^2H3)methyl-1-methyl-1H-1,2,3-triazol-5-yl]-8-[(S)-oxan-4-yl(phenyl)methyl]-3,8,10-triazatricyclo[7.4.0.0^2,^7]trideca-1(9),2(7),3,5,10,12-hexaen-5-yl}propan-2-ol] | < 0.01 µM |
| [2H]C([2H])([2H])c1nnn(C)c1-c1cc2c(cn1)c1ncc(C(C)(C)O)cc1n2[C@H](c1ccccc1)C1CCOCC1 [Example 364, 2-{11-[4-(^2H3)Methyl-1-methyl-1H-1,2,3-triazol-5-yl]-8-[(S)-(oxan-4-yl)(phenyl)methyl]-3,8,12-triazatricyclo[7.4.0.0^2,^7]trideca-1(9),2,4,6,10,12-hexaen-5-yl}propan-2-ol] | < 0.01 µM |
| Cc1cc([C@H](C2CCOCC2)n2c3cc(-c4c(C)nnn4C)ncc3c3ncc(C(C)(C)O)cc32)no1 [Example 365] | < 0.01 µM |
| Cc1nnn(C)c1-c1cc2c(cn1)c1ncc(C(C)(C)O)cc1n2[C@H](c1ccccc1)C1CCOCC1 [Example 368] | < 0.01 µM |
| Cc1noc(C)c1-c1cc2c(cn1)c1ncc(C(C)(C)O)cc1n2[C@H](c1ccccc1)C1CCOCC1 [Example 369] | < 0.01 µM |
